{"source": "patent US7235264B2", "about": "“Cerebral protection with a gas comprising xenon” (Air Liquide Deutschland GmbH, priority 2002, dated 2007)", "key": {"brain": {"tested_on": "brain", "test": "administration of xenon (inhalation): cerebral perfusion and oxygen supply in the brain", "format": "in vivo"}, "[1]": {"conditions": "e.g. long-term ventilation, current state of knowledge, cited from earlier work"}}, "note": "“Also recorded” adds a separate entry of the source."}
{"smiles": "[Xe]", "note": "[xenon]", "values": [{"measurement": "cerebral perfusion", "setting": "brain; administered xenon, available results", "result": "improvement in cerebral perfusion"}, {"measurement": "oxygen supply in the brain", "setting": "brain; administration of xenon or xenon-containing gases, in particular by inhalation", "result": "increased; also recorded: improved"}, {"measurement": "cerebral autoregulation", "setting": "brain; preliminary results", "result": "maintained or improved"}, {"measurement": "vasodilator action, especially capillary vasodilator in the capillary vascular system", "setting": "brain; preliminary results", "result": "acts as vasodilator"}, {"measurement": "side effects", "setting": "[1]; prolonged administration", "result": "no side effects"}, {"measurement": "accumulation in the body", "setting": "[1]; use as medicament", "result": "no accumulation"}, {"measurement": "metabolites formed in the body", "setting": "[1]; use as medicament", "result": "no metabolites are formed"}]}
